Activity calls are given as the source filed them. The rule behind the calls is not given here.
Key:
Ehrlich [1] = test: Antineoplastic activity against mouse EAC allografted in CF1 mouse assessed as packed cell volume on day 7 measured at 33 mg/kg (reference value: 32.75 +/- 7.87%); assay type: functional
Ehrlich [2] = test: Antineoplastic activity against mouse EAC allografted in CF1 mouse assessed as ascites volume on day 7 measured at 33 mg/kg (reference value: 4.1 +/- 1.24 mL); assay type: functional
Ehrlich [3] = test: Antineoplastic activity against mouse EAC allografted in CF1 mouse assessed as tumor growth inhibition on day 7 measured at 33 mg/kg; assay type: functional; settings: 168 h, read-out: TGI
Ehrlich [4] = test: Antineoplastic activity against mouse EAC allografted in CF1 mouse assessed as animal survival on day 7 measured at 33 mg/kg; assay type: functional, organism-based; set-up: dose 33 mg/kg
W256 [5] = test: Antitumor activity against rat Walker 256 cells allografted in Sprague-Dawley rat assessed as animal survival days at 2.5 mg/kg/day, ip; assay type: functional; settings: route intraperitoneal
W256 [6] = test: Antitumor activity against rat Walker 256 cells allografted in Sprague-Dawley rat assessed as survival time (treated/control) at 2.5 mg/kg/day, ip; assay type: functional; settings: route intraperitoneal
[7] = Acute toxicity in CF1 mouse; assay type: organism-based; settings: in vivo
P388 [8] = test: Antitumor activity against mouse P388 cells allografted in DBA/2 mouse assessed as median survival time of treated versus control mice (T/C) at 20 mg/kg/day, ip; assay type: functional; settings: route intraperitoneal
P388 [9] = test: Antitumor activity against mouse P388 cells allografted in DBA/2 mouse assessed as animal survival days at 20 mg/kg/day, ip; assay type: functional; settings: route intraperitoneal

Row | Compound | Activity (Ehrlich [1]) [%] | Activity (Ehrlich [2]) [mL] | inhibition in vivo at 33 mg/kg (Ehrlich [3]) [%] | Activity (Ehrlich [4]) | Survival (W256 [5]) [days] | T/C (W256 [6]) [%] | LD50 [7] [µmol/kg] | T/C (P388 [8]) [%] | Survival (P388 [9]) [days]
1 | N#CCOC(=O)[C@H](Cc1ccc(O)cc1)NC(=O)OCc1ccccc1 | 31.1 | 4.5 | 0 | Active | – | – | – | – | –
2 | N#CCOC(=O)[C@H](Cc1c[nH]c2ccccc12)NC(=O)OCc1ccccc1 | 19.7 | 4.3 | 38 | Active | – | – | – | – | –
3 | N#CCOC(=O)CC[C@H](NC(=O)OCc1ccccc1)C(=O)OCC#N | 32 | 3.2 | 35 | Active | – | – | – | – | –
4 | N[C@@H](Cc1ccc(N(CCCl)CCCl)cc1)C(=O)O | 3 | 0.1 | 99 | Active | 23 | 305 | – | – | –
5 | Cc1ccc(S(=O)(=O)N[C@@H](Cc2ccccc2)C(=O)CCl)cc1 [TPCK] | 0.05 | 0.01 | 100 | – | – | – | – | – | –
6 | O=C(O)[C@@H]1CCCN1C(=O)OCc1ccccc1 | 32 | 1.9 | 53 | Active | – | – | – | – | –
7 | N#CCOC(=O)CCCNC(=O)OCc1ccccc1 | 48.8 | 0.6 | 71 | – | – | – | – | – | –
8 | O=Cc1ccccc1 [BENZALDEHYDE] | 49 | 0.8 | 69 | Active | – | – | – | – | –
9 | N#CCOC(=O)CCCCCNC(=O)OCc1ccccc1 | 41 | 1 | 54 | Active | – | – | – | – | –
10 | C=COC(=O)CCCCCNC(=O)OCc1ccccc1 | 36 | 0.6 | 75 | Active | – | – | – | – | –
11 | C=COC(=O)CC[C@H](NC(=O)OCc1ccccc1)C(=O)OC=C | 37 | 0.9 | 69 | Active | – | – | 1500 | – | –
12 | N#CCOC(=O)[C@H](Cc1ccccc1)NC(=O)OCc1ccccc1 | 0.1 | 0.2 | 99.9 | Active | – | – | – | – | –
13 | C=COC(=O)[C@H](Cc1ccc(O)cc1)NC(=O)OCc1ccccc1 | 29.7 | 3.9 | 16 | Active | – | – | – | – | –
14 | C=COC(=O)CCCNC(=O)OCc1ccccc1 | 39.5 | 3.2 | 6 | Active | – | – | – | – | –
15 | C=COC(=O)[C@H](Cc1ccccc1)NC(=O)c1ccccc1 | 9.8 | 2.1 | 56.8 | Active | – | – | – | – | –
16 | CC(C)C[C@H](NC(=O)OCc1ccccc1)C(=O)OC(Br)CBr (stereo partly specified) | 14 | 0.002 | 99 | Active | 8.5 | 113 | 500 | 112 | 9.1
17 | C#CCOC(=O)[C@H](CC(C)C)NC(=O)OCc1ccccc1 | 23 | 0.5 | 85 | Active | – | – | 1650 | 112 | 9.1
18 | C#CCOC(=O)CCCNC(=O)OCc1ccccc1 | 34.5 | 2.3 | 20 | Active | 23 | 305 | – | 83 | 6.7
19 | O=C(O)CCCCCNC(=O)OCc1ccccc1 | 33 | 1 | 63 | Active | – | – | – | – | –
20 | O=C(O)CCCNC(=O)OCc1ccccc1 | 32.3 | 0.8 | 71 | Active | – | – | – | – | –
21 | O=C(O)C[C@H](NC(=O)OCc1ccccc1)C(=O)O | 21 | 3.7 | 31 | Active | – | – | – | – | –
22 | O=C(O)CC[C@H](NC(=O)OCc1ccccc1)C(=O)O | 28 | 0.7 | 81 | Active | – | – | 1780 | – | –
23 | N#CCOC(=O)C[C@H](NC(=O)OCc1ccccc1)C(=O)OCC#N | 33 | 4.7 | 7 | – | – | – | – | – | –
24 | Cc1ccc(S(=O)(=O)N[C@@H](Cc2ccc(OS(=O)(=O)c3ccc(C)cc3)cc2)C(=O)OCC#N)cc1 | 6.5 | 0.8 | 53 | Active | – | – | – | – | –

Row | Compound | Activity (Ehrlich [1]) [%] | Activity (Ehrlich [2]) [mL] | inhibition in vivo at 33 mg/kg (Ehrlich [3]) [%] | Activity (Ehrlich [4]) | Survival (W256 [5]) [days] | T/C (W256 [6]) [%] | LD50 [7] [µmol/kg] | T/C (P388 [8]) [%] | Survival (P388 [9]) [days]
25 | Cc1ccc(S(=O)(=O)N[C@@H](Cc2ccccc2)C(=O)OCC#N)cc1 | 3.4 | 0.4 | 97 | – | – | – | – | – | –
26 | O=c1[nH]cc(F)c(=O)[nH]1 [FLUOROURACIL] | – | – | – | – | – | – | – | 136 | 11
27 | C=COC(=O)[C@H](Cc1ccc(O)cc1)NS(=O)(=O)c1ccc(C)cc1 | 17.5 | 1.9 | 75 | Active | – | – | – | – | –
28 | CC=O | 56 | 2 | 43 | – | – | – | – | – | –
29 | N#CCOC(=O)CNC(=O)OCc1ccccc1 | 44.7 | 2.2 | 29 | Active | – | – | – | – | –
30 | C=COC(=O)CNC(=O)OCc1ccccc1 | 34 | 1.5 | 63 | Active | – | – | 2130 | – | –
31 | Sc1ncnc2nc[nH]c12 [MERCAPTOPURINE ANHYDROUS] | 0.3 | 0.7 | 99.6 | Active | – | – | – | 148 | 12
32 | C#CCOC(=O)C[C@H](NC(=O)OCc1ccccc1)C(=O)OCC#C | 21 | 3.7 | 31 | Active | – | – | – | – | –
33 | C=COC(=O)[C@@H]1CCCN1C(=O)OCc1ccccc1 | 35 | 1 | 73 | – | – | – | 1820 | – | –
34 | O=C(O)CNC(=O)OCc1ccccc1 | 22 | 0.2 | 97 | – | – | – | – | – | –
35 | O=C(CCCNC(=O)OCc1ccccc1)OC(Br)CBr (stereo unspecified) | 2 | 0.6 | 98.7 | – | 18.1 | 226 | – | 100 | 8.1
36 | N#CCOC(=O)[C@H](Cc1ccccc1)NC(=O)c1ccccc1 | 13.2 | 1.8 | 47 | – | – | – | – | – | –
37 | C#CCOC(=O)CNC(=O)OCc1ccccc1 | 27 | 5.2 | 0 | Active | – | – | – | – | –
38 | O=C(CCCCCNC(=O)OCc1ccccc1)OC(Br)CBr (stereo unspecified) | 30 | 1.7 | 50 | – | – | – | – | – | –
39 | C=COC(=O)[C@H](Cc1c[nH]c2ccccc12)NC(=O)OCc1ccccc1 | 14.3 | 1.3 | 87 | Active | 8 | 106 | – | – | –
40 | O=C(OC(Br)CBr)[C@@H]1CCCN1C(=O)OCc1ccccc1 (stereo partly specified) | 10 | 2.1 | 84 | Active | – | – | 190 | – | –
41 | N#CCOC(=O)[C@H](CCC(N)=O)NC(=O)OCc1ccccc1 | 40 | 2 | 51 | – | – | – | – | – | –
42 | C=COC(=O)[C@H](Cc1ccccc1)NS(=O)(=O)c1ccc(C)cc1 | 19.2 | 3.8 | 56.8 | – | – | – | – | – | –
43 | O=C(CNC(=O)OCc1ccccc1)OC(Br)CBr (stereo unspecified) | 0 | 0 | 100 | Active | 10.1 | 135 | 370 | 28 | 2.2
44 | CC(C)C[C@H](NC(=O)OCc1ccccc1)C(=O)OCC#N | 38 | 2.7 | 27 | Active | – | – | – | – | –
45 | Cc1ccc(S(=O)(=O)N[C@@H](Cc2ccc(O)cc2)C(=O)OCC#N)cc1 | 15.8 | 3.8 | 56 | – | – | – | 220 | – | –
46 | C=COC(=O)[C@H](Cc1ccccc1)NC(=O)OCc1ccccc1 | 0.4 | 0.1 | 99.9 | Active | – | – | > 6150 | – | –
47 | O=C(N[C@@H](Cc1ccccc1)C(=O)OC(Br)CBr)OCc1ccccc1 (stereo partly specified) | 1.4 | 0 | 100 | Active | – | – | – | – | –
48 | C=COC(=O)[C@H](CC(C)C)NC(=O)OCc1ccccc1 | 38 | 0.9 | 48 | Active | – | – | – | – | –

Reference: ChEMBL document CHEMBL3271995, “Antineoplastic agents. 2. Structure-activity studies on N-protected vinyl, 1,2-dibromoethyl, and cyanomethyl esters of several amino acids” (J Med Chem, 1977)
